The source of these data is PMC6151802, “A New Series of Cytotoxic Pyrazoline Derivatives as Potential Anticancer Agents that Induce Cell Cycle Arrest and Apoptosis” (Molecules : A Journal of Synthetic Chemistry and Natural …, 2017).

Assay [1] deals with HepG-2 cells. The assay is described as follows: Plate colony formation (clonogenic survival) assay. The class given is cell-based, human. The note with it: different concentrations of 1b. As to the method:
To assess the antiproliferative effect of compound 1b (Figure 2), we analyzed clonogenicity of HepG-2 cells after the treatment with 1b for 48 h.
Additionally, we used plate colony formation assay to evaluate the colony formation ability of HepG-2 cells. The cells were seeded in the complete medium in 6-well plate at 600 cells per well. After attachment, cells were exposed to different concentrations of compound 1b. After 7 days, the cells were fixed with paraformaldehyde for 20 min and stained with 1% crystal violet solution for 30 min to observe colonies.

Assay [2] concerns NIH/3T3 mouse embryonic fibroblast cells. The assay is described as follows: MTT cytotoxicity assay, NIH/3T3 normal cells. The class given is cell-based. The note with it: 48 h treatment, read-out: IC50 NIH/3T3 Cell Line. The procedure:
(§1) The antiproliferative activity of 1b–12b against three human cancer cell lines (include HepG-2 human hepatoma cell line, Hela human cervical carcinoma cell line and A549 human lung adenocarcinoma cell line) and NIH/3T3 mouse embryonic fibroblast cells were evaluated by the MTT assay (Table 2). […] For Hela cells, the antiproliferative activity of some of the derivatives were similar to that of cis-DDP. […] We selected compound 1b and cis-DDP to generate growth-inhibitory curves (Figure 1) against HepG-2 cells and Hela cells.
(§2) A MTT assay was developed to monitor mammalian cell survival and proliferation in vitro [29]. HepG-2 cells, Hela and A549 cells from the China Center for Type Culture Collection (CCTCC, Wuhan, China) were cultivated in RPMI-1640 medium supplemented with 10% fetal bovine serum (ν/ν), 100 U/mL penicillin, and […] streptomycin. Cells (5 × 10^3 cell/well) at the log phase of their growth cycle were added to each well of a 96-well plate and incubated for 24 h at 37 °C in a humidified atmosphere of 5% CO2. Then, cells were treated with or without test compounds at different concentrations. After 48 h, 5 mg/mL MTT solution (20 μL per well) was added. Cells were incubated at 37 °C. After 4 h, the MTT solution was removed and DMSO was added to each well (150 μL). Eight to twelve minutes later, the optical density (OD) values were measured at room temperature at a wavelength of 595 nm on a FilterMax F3/F5 Microplate Reader (Molecular Devices, Sydney, Australia). In this experiment, 5 mg/mL of cisplatin was used as the positive control and 0.1% DMSO was used as the negative reference. Each assay was carried out at least three times.
On the technique in general: Tetrazolium dyes change colour on reduction, which living cells bring about.

The subject of assay [3] is HepG-2 cells. The assay is described as follows: Western blot analysis of apoptosis-related proteins. The class given is cell-based, human. The note with it: 2.5, 5 and 10 μM, 24 h. As to the method: To explore the mechanisms underlying apoptosis of compound 1b in HepG-2 cells, the characteristics of apoptosis including p53, caspase 3 and PARP cleavage were examined. […] The features of apoptosis appeared to occur in a dose-dependent manner. Furthermore, we measured the effect of 1b on expression of anti-apoptotic protein Bcl-2 and pro-apoptotic protein Bax in HepG-2 cells.
HepG-2 cells (1.0 × 10^6 cells/well) were seeded in six-well plates. After treatment with compound 1b for 24 h, the preparation of total protein samples from the culture cells for immunoblotting was carried out as previously described. For gel electrophoresis (Novex® NuPAGE® SDS-PAG, Thermo, Waltham, MA, USA), 30–50 μg of protein was used per well. Then the proteins were separated by SDS-PAGE and electroblotted to nitrocellulose membrane. The membrane was incubated with the following indicated antibody: Bcl-2, Bax, caspase-3, p53, PARP and β-actin (Cell Signaling Technology, Beverly, MA, USA) for 12 h at 4 °C. The antibodies were used in […] 5% BSA-TBS-T. The blots were washed four times and then incubated with horseradish peroxidase-conjugated secondary antibody (Santa Cruz Biotechnology Laboratories. Santa Cruz, CA, USA) for 1.5 h at room temperature. β-Actin antibody was used for equal loading.

Assay [4] has as its system HepG-2 human hepatoma cell line. The assay is described as follows: MTT antiproliferative assay, HepG-2. The class given is cell-based. The note with it: for IC50: MTT, 48 h treatment; for SI (selectivity index): SI = IC50, NIH/3T3/IC50, HepG-2. The procedure:
as §1, §2

Assay [5] deals with HepG-2 cells. The assay is described as follows: Cellular apoptosis by Annexin V-FITC/PI flow cytometry. The class given is cell-based, human. The note with it: 24 h; for total percentage of apoptotic cells (early and late, Q2 + Q3): vehicle 2.921%. The procedure: To examine the potency of the cancer cell apoptosis effect of 1b on HepG-2 cells, the number of apoptotic cells was monitored using flow cytometry. […] The total percentage of apoptotic cells (early and late, Q2 + Q3) was 2.921% when treated with vehicle alone.
HepG-2 cells (2.0 × 10^5 cells/well) were plated in a 6-well plate and allowed to adhere. After 24 h, the medium was replaced with fresh culture medium containing compound 1b at final concentrations of 2.5, 5, and 10 μmol/L at 37 °C. After 24 h, the cells were harvested and staining solution was added (containing 5 μL Annexin V-FITC and 5 μL PI). The cells were then incubated for 15 min at 20–25 °C in the dark. The samples were then detected in a FACScalibur BD Accuri^TM C6 flow cytometer. Analyses were performed by the software supplied with the instrument.

Assay [6] relates to A549 human lung adenocarcinoma cell line. The assay is described as follows: MTT antiproliferative assay, A549. Type of assay: cell-based. The note with it: 48 h treatment. As to the method:
as §1, §2

For assay [7], the system named is HepG-2 cells. The assay is described as follows: Flow cytometric analysis of cell cycle distribution (PI). Type of assay: cell-based, human. The note with it: 24 h, control 9.97%. An excerpt: Cell cycle arrest is an important sign for inhibition of proliferation and the series of events that take place in a cell leading to its division and replication. […] Compound 1b was chosen for intensive mechanism study on HepG-2 cells because of its highest selectivity index (SI) value of 14.5. After the inhibitory effect of 1b on cell proliferation was observed, we next assessed the effect on the cell cycle distribution of HepG-2 cells by flow cytometry (Figure 3). […] This represented a remarkable difference from 9.97% in the control group (p < 0.05). These findings confirmed that compound 1b could influence HepG-2 cell cycle progression at low micromolar concentrations in a dose-dependent manner.
For flow cytometric analysis of the DNA content, HepG-2 cells (2.0 × 10^5 cells/well) in exponential growth were plated in 6-well plates and incubated for 24 h and then incubated with different concentrations (2.5, 5 and 10 μmol/L) of compound 1b at 37 °C for 24 h. After 24 h treatment, cells were collected, centrifuged, and fixed with ice-cold ethanol (70%) overnight 4 °C. The cells were washed twice with PBS and then treated with lysis buffer containing RNase A (Sigma, St. Louis, MO, USA), which was kept in a lukewarm bath at 37 °C, for 30 min, sequentially, and stained with PI and kept in the dark for 30 min [30]. Then, the samples were analyzed by a flow cytometer (FACSCalibur, BD Accuri^TM C6 BD Instruments Inc., New York, NY, USA). Each experiment was performed in triplicate. DNA histograms were analyzed using Mod Fit (version 3.2) for Windows (Verity Software House, New York, NY, USA).
In general terms: A flow cytometer gives signals particle by particle.

Assay [8] has as its system Hela human cervical carcinoma cell line. The assay is described as follows: MTT antiproliferative assay, Hela. Type of assay: cell-based. The note with it: 48 h treatment. The procedure:
as §1, §2

On to `COc1cc(C2CC(c3ccc(F)cc3)=NN2C(N)=S)cc(OC)c1OC` (stereo not drawn) [1b], for which the “clonogenicity / plate colony formation of HepG-2 cells” value in assay [1] is “significantly reduced cell viability in a dose-dependent fashion”. Further, the IC50 in assay [2] was > 100 µM; in assay [4] it was 6.78 ± 1.44 µM; in assay [6], > 100 µM; in assay [8], 7.63 ± 1.35 µM. In addition, the PARP cleavage result in assay [3] was “PARP was cleaved into fragmentation of 89 kDa”. Further, the “expression of anti-apoptotic protein Bcl-2” value in assay [3] is given as “decrease in expression”. Besides, the “expression of pro-apoptotic protein Bax” value in assay [3] is reported as “increase in expression”. Besides, in assay [3], the “level of cleaved caspase-3” value is “dramatically increased”. The “level of p53” value in assay [3] was “dramatically increased”. Besides, the “SI (selectivity index)” value in assay [4] was >14.75. Moreover, the “fold percentage of apoptotic cells in comparison with the control group” value in assay [5] (2.5 μmol/L) came to 1.33 fold; in assay [5] (5 μmol/L), 2.26 fold; in assay [5] (10 μmol/L), 3.53 fold. In addition, the figures for the “total percentage of apoptotic cells (early and late, Q2 + Q3)” value in assay [5] (2.5 μmol/L), in assay [5] (5 μmol/L) and in assay [5] (10 μmol/L) were 3.889%, 6.581% and 10.309%, respectively. The figures for the “percentage of cells at the G2/M phase” value in assay [7] (2.5 μmol/L), in assay [7] (5 μmol/L) and in assay [7] (10 μmol/L) were 25.06%, 56.15% and 71.25%, respectively.

With `CCOc1cc(C2CC(c3ccccc3O)=NN2C(N)=S)cc(Br)c1O` (stereo not drawn) [9b, 3-(2-Hydroxyphenyl)-5-(3-ethyoxyl-4-hydroxy-5-bromothiophenyl)-4,5-dihydro-1H-pyrazole-1-carbothioamide], the IC50 in assay [2] was > 100 µM; in assay [4], 32.2 ± 2.83 µM; in assay [6], > 100 µM; in assay [8] it was 7.74 ± 1.63 µM. Besides, in assay [4], the “SI (selectivity index)” value was >3.10.

With `N.N.[Cl][Pt][Cl]` [cis-DDP, cisplatin, reference compound], the IC50 in assay [2] is 4.88 ± 1.93 µM; in assay [4] it was 7.57 ± 0.98 µM; in assay [6], 29.5 ± 3.3 µM; in assay [8], 5.28 ± 0.66 µM. The “SI (selectivity index)” value in assay [4] was found to be 0.64.
